What was measured:
Type in all cases: in vivo
male turkeys = experiment: Effect of gonadoliberin analogues on the sperm production of male turkeys (Table 5)
Text: In a further experiment, the sperm production of male turkeys was raised by administering the following four compounds: […]

[1] = tested on: blood plasma testosterone level; experiment: Blood plasma testosterone level of ganders (Table 6); conditions: for Testosterone: Treated (n = 10)
Description: (§1) Ganders kept under large-scale conditions and propagated in a natural way were treated with 0.5 μg/kg of D-Phe^6,desGly^10 -GnRH ethylamide analogue every 2 days, altogether 3 times. […] This manifested itself in the rise of the copulation activity (Table 6).

male angora rabbits = experiment: Enhancement of the sperm production of male rabbits; conditions: 3 μg every 2 days, 3 times
Description: In this experiment male angora rabbits showing a low libido were used from which no sperm could be obtained. The motility of the cells in their sperm was lower than 75%; thus, these animals could not be used for propagating. Of these animals 234 were treated with 3 μg of D-Phe^6,desGly^10 -GnRH ethylamide analogue every 2 days, altogether 3 times. […] These effects could be observed for several weeks; thus, the amount of the sperm usable for artificial insemination increased to its 2.5-fold value.

ganders [2] = experiment: Sperm production and sperm quality of ganders kept under natural conditions (Table 7)
Description: "Hungarian" and "Landes" ganders kept under natural conditions and divided to small groups were treated with 0.5 μg/kg of D-Phe^6,desGly^10 -GnRH ethylamide analogue every 2 days, altogether 3 times.

ganders [3] = experiment: Copulation activity / libido of ganders (Table 6); conditions: for No. of daily copulations: Treated (n = 10)
Description: as §1

[4] = at the beginning of the experiment
[5] = 0.5 μg/kg every 2 days, 3 times
[6] = "Hungarian" ganders, sampling February 7
[7] = "Hungarian" ganders, sampling February 14
[8] = "Hungarian" ganders, sampling February 21
[9] = "Hungarian" ganders, sampling February 28
[10] = "Hungarian" ganders, sampling January 15 (before treatment)
[11] = "Hungarian" ganders, sampling January 31
[12] = "Hungarian" ganders, sampling March 7
[13] = "Hungarian" ganders, sampling March 12
[14] = "Landes" ganders, sampling February 7
[15] = "Landes" ganders, sampling February 14
[16] = "Landes" ganders, sampling February 21
[17] = "Landes" ganders, sampling February 28
[18] = "Landes" ganders, sampling January 15 (before treatment)
[19] = "Landes" ganders, sampling January 31
[20] = "Landes" ganders, sampling March 7
[21] = "Landes" ganders, sampling March 12

Compound: CCNC(=O)[C@@H]1CCCN1C(=O)[C@H](CCCNC(=N)N)NC(=O)[C@H](CC(C)C)NC(=O)[C@@H](Cc1ccccc1)NC(=O)[C@H](Cc1ccc(O)cc1)NC(=O)[C@H](CO)NC(=O)[C@H](Cc1c[nH]c2ccccc12)NC(=O)[C@H](Cc1c[nH]cn1)NC(=O)[C@@H]1CCC(=O)N1 [Compound "C", D-Phe^6,desGly^10 -GnRH ethylamide]
- Sperm production (male turkeys; after 30 days): 0.30 ml/animal
- Sperm production (male turkeys; after 60 days): 0.32 ml/animal
- Sperm production (male turkeys; after 90 days): 0.34 ml/animal
- Sperm production (male turkeys; after 120 days): 0.30 ml/animal
- Sperm production (male turkeys; [4]): 0.21 ml/animal
- blood plasma testosterone level (in words) [1, 5]: significantly raised
- Testosterone ([1]; sampling October 1): 390 ± 78 pg/mL
- Testosterone ([1]; sampling September 3): 378 ± 142 pg/mL
- Testosterone ([1]; sampling September 10): 470 ± 133 pg/mL
- Testosterone ([1]; sampling September 17): 879 ± 145 pg/mL
- Testosterone ([1]; sampling September 24): 695 ± 125 pg/mL
- increase of the amount of sperm usable for artificial insemination (male angora rabbits): 2.5 fold
- motility of spermatozoa in excess of the mean value (76%) of sperm from good males (male angora rabbits; in average, within 4 weeks after the treatment): 10%
- libido of the animals (male angora rabbits; low-libido male angora rabbits, within 4 weeks after the treatment): significantly increased
- sperm production relative to the average of sperm obtained from good males useful for breeding (male angora rabbits; weighed in ml, within 4 weeks after the treatment): 80%
- duration of the sperm production increase (ganders [2]; 0.5 μg/kg every 2 days, 3 times, "Hungarian" and "Landes" ganders): lasting for about one month and a half
- Sperm (ganders [2]; "Hungarian" ganders, 0.5 μg/kg on January 28, 30, February 1, sampling January 15 (before treatment)): 0.19 mL
- Motility of the spermatozoa (ganders [2]; [6]): good
- No. of spermatozoa (ganders [2]; [6]): 3.2 10^6 /mm^3
- Ratio of dead + deficient cells (ganders [2]; [6]): 8%
- Sperm (ganders [2]; [6]): 0.48 mL
- Motility of the spermatozoa (ganders [2]; [7]): good
- No. of spermatozoa (ganders [2]; [7]): 3.0 10^6 /mm^3
- Ratio of dead + deficient cells (ganders [2]; [7]): 10%
- Sperm (ganders [2]; [7]): 0.56 mL
- Motility of the spermatozoa (ganders [2]; [8]): good
- No. of spermatozoa (ganders [2]; [8]): 2.9 10^6 /mm^3
- Ratio of dead + deficient cells (ganders [2]; [8]): 12%
- Sperm (ganders [2]; [8]): 0.30 mL
- Motility of the spermatozoa (ganders [2]; [9]): good
- No. of spermatozoa (ganders [2]; [9]): 2.9 10^6 /mm^3
- Ratio of dead + deficient cells (ganders [2]; [9]): 14%
- Sperm (ganders [2]; [9]): 0.23 mL
- Motility of the spermatozoa (ganders [2]; [10]): weak
- No. of spermatozoa (ganders [2]; [10]): 2.1 10^6 /mm^3
- Ratio of dead + deficient cells (ganders [2]; [10]): 19%
- Motility of the spermatozoa (ganders [2]; [11]): weak
- No. of spermatozoa (ganders [2]; [11]): 2.3 10^6 /mm^3
- Ratio of dead + deficient cells (ganders [2]; [11]): 20%
- Sperm (ganders [2]; [11]): 0.25 mL
- Motility of the spermatozoa (ganders [2]; [12]): good
- No. of spermatozoa (ganders [2]; [12]): 3.1 10^6 /mm^3
- Ratio of dead + deficient cells (ganders [2]; [12]): 17%
- Sperm (ganders [2]; [12]): 0.44 mL
- Motility of the spermatozoa (ganders [2]; [13]): good
- No. of spermatozoa (ganders [2]; [13]): 3.0 10^6 /mm^3
- Ratio of dead + deficient cells (ganders [2]; [13]): 14%
- Sperm (ganders [2]; [13]): 0.33 mL
- Sperm (ganders [2]; "Landes" ganders, 0.5 μg/kg on January 28, 30, February 1, sampling January 15 (before treatment)): 0.19 mL
- Motility of the spermatozoa (ganders [2]; [14]): medium
- No. of spermatozoa (ganders [2]; [14]): 2.2 10^6 /mm^3
- Ratio of dead + deficient cells (ganders [2]; [14]): 19%
- Sperm (ganders [2]; [14]): 0.32 mL
- Motility of the spermatozoa (ganders [2]; [15]): good
- No. of spermatozoa (ganders [2]; [15]): 2.0 10^6 /mm^3
- Ratio of dead + deficient cells (ganders [2]; [15]): 16%
- Sperm (ganders [2]; [15]): 0.45 mL
- Motility of the spermatozoa (ganders [2]; [16]): medium
- No. of spermatozoa (ganders [2]; [16]): 2.0 10^6 /mm^3
- Ratio of dead + deficient cells (ganders [2]; [16]): 19%
- Sperm (ganders [2]; [16]): 0.38 mL
- Motility of the spermatozoa (ganders [2]; [17]): medium
- No. of spermatozoa (ganders [2]; [17]): 2.2 10^6 /mm^3
- Ratio of dead + deficient cells (ganders [2]; [17]): 17%
- Sperm (ganders [2]; [17]): 0.35 mL
- Motility of the spermatozoa (ganders [2]; [18]): weak
- No. of spermatozoa (ganders [2]; [18]): 1.9 10^6 /mm^3
- Ratio of dead + deficient cells (ganders [2]; [18]): 23%
- Motility of the spermatozoa (ganders [2]; [19]): medium
- No. of spermatozoa (ganders [2]; [19]): 2.0 10^6 /mm^3
- Ratio of dead + deficient cells (ganders [2]; [19]): 23%
- Sperm (ganders [2]; [19]): 0.43 mL
- Motility of the spermatozoa (ganders [2]; [20]): good
- No. of spermatozoa (ganders [2]; [20]): 1.9 10^6 /mm^3
- Ratio of dead + deficient cells (ganders [2]; [20]): 20%
- Sperm (ganders [2]; [20]): 0.18 mL
- Motility of the spermatozoa (ganders [2]; [21]): medium
- No. of spermatozoa (ganders [2]; [21]): 1.8 10^6 /mm^3
- Ratio of dead + deficient cells (ganders [2]; [21]): 19%
- Sperm (ganders [2]; [21]): 0.20 mL
- libido of the animals (ganders [3]; [5]): significantly raised
- duration of the high copulation activity (ganders [3]; 0.5 μg/kg, ganders): maintained at this high level for one additional month
- No. of daily copulations (ganders [3]; October 1): 10
- No. of daily copulations (ganders [3]; September 3): 9
- No. of daily copulations (ganders [3]; September 10): 7
- No. of daily copulations (ganders [3]; September 17): 12
- No. of daily copulations (ganders [3]; September 24): 13

Compound: (Asp-α-anilide)^6,desGly^10 -GnRH [Compound "B"]
- Sperm production (male turkeys; after 30 days): 0.21 ml/animal
- Sperm production (male turkeys; after 60 days): 0.28 ml/animal
- Sperm production (male turkeys; [4]): 0.18 ml/animal

Source: patent US4751215A, “Process for increasing the sexual activity of birds and useful domestic mammals and for preparing spermatozoa suitable to their propagation” (INNOFINANCE Altalanos Innovacios Penzintezet, priority 1985, dated 1988)
